The term IC50 denotes the midpoint of a concentration-inhibition curve. Lower therefore signals greater potency. Usually melting point stands for the temperature of the solid-liquid transition.

The subject of one data set is HT-1080 cells. The data set is described as follows: MTT cytotoxicity assay, HT-1080 fibrosarcoma cells. The data set is classed as cell-based, human. Conditions: Homo sapiens, HT-1080, 72 h, 3 days incubation, mean of three independent experiments (± standard deviation). As to the method:
The compounds were tested for their cytotoxic activity on a solid tumor cell line, i.e. HT-1080 originating from a fibrosarcoma (American Type Culture Collection; ATCC, Rockville, MD, USA), and on two leukemia cell lines, i.e. the HL-60 human promyelocytic leukemia (European Collection of Animal Cell Cultures; ECACC, Salisbury, UK) and the K-562 human chronic myelogenous leukemia (ATCC). Furthermore, the human skin fibroblast strain AG01523 (Coriell Institute for Medical Research, Camden, NJ, USA) was also used as normal control. Adherent cells were routinely cultured in Dulbecco’s […] (DMEM), and leukemia cells in RPMI 1640, in an environment of 5% CO2, 85% humidity, and 37 °C. All media were supplemented with penicillin (100 U/ml), streptomycin (100 μg/ml) (media and antibiotics from Biochrom KG, Berlin, Germany), and 10% fetal bovine serum (Life Technologies Europe BV, Thessaloniki, Greece). Adherent cells were subcultured using a trypsin (0.25%; Life Technologies Europe BV)—citrate (0.30%; Sigma, St. Louis, MO, USA) solution. The cytotoxicity assay was performed by a modification of the MTT method. Briefly, the cells were plated in flat-bottomed 96-well microplates at a density of 5000 cells/well, and incubated overnight before the addition of serial dilutions of the test compounds. The cells were incubated with the compounds or the corresponding vehicle (DMSO) concentrations for 3 days. Then, the medium was replaced with MTT (Sigma) in serum-free, phenol-red-free DMEM (1 mg/ml). After incubation for 4 h, the MTT formazan was solubilized in 2-propanol, and the optical density was measured using a FLUOstar Optima (BMG Labtech, Ortenberg, Germany) microplate reader at a wavelength of 550 nm (reference wavelength 660 nm). Doxorubicin hydrochloride (Sigma) was included in the experiments as positive control. The results represent the mean of three independent experiments and are expressed as IC50 [42].
A general note: Formazan colour is commonly taken as a measure of viable cells.
`O=C1NC(=S)SC1=Cc1ccc(OCc2nc3ccccc3c(=O)n2-c2ccc(F)cc2)cc1` [Compound 32, 5-{4-[(3-(4-Fluorophenyl)-4-oxo-3,4-dihydroquinazolin-2-yl)methoxy]benzylidene}-2-thioxothiazolidin-4-one] yielded an IC50 of 47.3 µM.

On to `O=C1NC(=S)SC1=Cc1ccc(OCc2nc3ccccc3c(=O)n2-c2ccc(Cl)cc2)cc1` [Compound 33, 5-{4-[(3-(4-Chlorophenyl)-4-oxo-3,4-dihydroquinazolin-2-yl)methoxy]benzylidene}-2-thioxothiazolidin-4-one], for which the IC50 was 35.3 µM.

`O=C1NC(=S)SC1=Cc1ccc(OCc2nc3ccccc3c(=O)n2-c2cccc(Cl)c2)cc1` [Compound 34, 5-{4-[(3-(3-Chlorophenyl)-4-oxo-3,4-dihydroquinazolin-2-yl)methoxy]benzylidene}-2-thioxothiazolidin-4-one]: 57.1 µM corresponded to half-maximal inhibition (IC50). This IC50 is about 1.6-fold higher than that of the molecule before.

As to `O=C1NC(=S)SC1=Cc1ccc(OCc2nc3ccccc3c(=O)n2-c2ccc(Br)cc2)cc1` [Compound 35, 5-{4-[(3-(4-Bromophenyl)-4-oxo-3,4-dihydroquinazolin-2-yl)methoxy]benzylidene}-2-thioxothiazolidin-4-one], the midpoint of inhibition, the IC50, lay at 28.8 µM.

Molecule `O=C1NC(=S)SC1=Cc1ccc(OCc2nc3ccccc3c(=O)n2-c2cccc(Br)c2)cc1` [Compound 36, 5-{4-[(3-(3-Bromophenyl)-4-oxo-3,4-dihydroquinazolin-2-yl)methoxy]benzylidene}-2-thioxothiazolidin-4-one] had an IC50 of 43.4 µM.

Molecule `Cc1ccc(-n2c(COc3ccc(C=C4SC(=S)NC4=O)cc3)nc3ccccc3c2=O)cc1` [Compound 38, 5-{4-[(3-(4-Methylphenyl)-4-oxo-3,4-dihydroquinazolin-2-yl)methoxy]benzylidene}-2-thioxothiazolidin-4-one] came in with an IC50 of 35.7 µM.

For `COc1cc(C=C2SC(=S)NC2=O)ccc1OCc1nc2ccccc2c(=O)n1-c1ccccc1` [Compound 41, 5-{4-[(3-Phenyl-4-oxo-3,4-dihydroquinazolin-2-yl)methoxy]-3-methoxybenzylidene}-2-thioxothiazolidin-4-one], the half-inhibitory concentration (IC50) amounted to 36.1 µM.

In turn, `COc1cc(C=C2SC(=S)NC2=O)ccc1OCc1nc2ccccc2c(=O)n1-c1cccc(Br)c1` [Compound 46, 5-{4-[(3-(3-Bromophenyl)-4-oxo-3,4-dihydroquinazolin-2-yl)methoxy]-3-methoxybenzylidene}-2-thioxothiazolidin-4-one] yielded an IC50 of 23.7 µM.

With `COc1cc(C=C2SC(=S)NC2=O)ccc1OCc1nc2ccccc2c(=O)n1-c1ccc(C)cc1` [Compound 48, 5-{4-[(3-(4-Methylphenyl)-4-oxo-3,4-dihydroquinazolin-2-yl)methoxy]-3-methoxybenzylidene}-2-thioxothiazolidin-4-one], it took 31.5 µM to reach half-maximal inhibition (IC50).

The molecule `COc1cc(C=C2SC(=S)NC2=O)ccc1OCc1nc2ccccc2c(=O)n1-c1cccc(C)c1` [Compound 49, 5-{4-[(3-(3-Methylphenyl)-4-oxo-3,4-dihydroquinazolin-2-yl)methoxy]-3-methoxybenzylidene}-2-thioxothiazolidin-4-one] came in with an IC50 of 30.7 µM.

Consider `COc1ccc(-n2c(COc3ccc(C=C4SC(=S)NC4=O)cc3OC)nc3ccccc3c2=O)cc1` [Compound 50, 5-{4-[(3-(4-Methoxyphenyl)-4-oxo-3,4-dihydroquinazolin-2-yl)methoxy]-3-methoxybenzylidene}-2-thioxothiazolidin-4-one], for which half-maximal inhibition (IC50) was put at 34.7 µM.

System in the next data set: not given
Experiment: not given
Conditions: not given
With `O=C1NC(=S)SC1=Cc1ccc(OCc2nc3ccccc3c(=O)n2-c2ccc(F)cc2)cc1` (hydrate or solvate) [Compound 32, 5-{4-[(3-(4-Fluorophenyl)-4-oxo-3,4-dihydroquinazolin-2-yl)methoxy]benzylidene}-2-thioxothiazolidin-4-one], the melting point was 231 to 233 °C (dec.).

These data come from article PMC5640562, “Synthesis and anticancer activity of novel quinazolinone-based rhodanines” (Chemistry Central Journal, 2017).
